From paper PMC4116524, “A virtual screen identified C96 as a novel inhibitor of phosphatidylinositol 3-kinase that displays potent preclinical activity against multiple myeloma in vitro and in vivo” (Oncotarget, 2014)

Test system: phosphorylation of mTOR, p70S6K and 4E-BP1 in LP1, OPM2 and JJN3 cells
Test: mTOR signaling pathway, immunoblotting
Assay type: cell-based
Details: LP1, OPM2, JJN3, 24 hrs, concentration-dependent
Experimental: Figure 2 C96 inhibits AKT and mTOR signaling (A) LP1 and OPM2 were starved overnight, then treated with C96 at the indicated concentrations, or 100 μM of S14161 for 2 hrs, followed by IGF-1 (100 ng/mL) for 15 min. Cells were collected for the analysis of the expression of p-AKT and total AKT (T-AKT) by immunoblotting. […]
The PI3K/AKT plays a critical role in regulating a myriad of downstream effectors, of which the most prominent ones are mTOR/p70S6K/4E-BP1. […] To examine whether PI3K inhibition led to deregulation of the mTOR signaling pathway, we further measured the changes of mTOR, p70S6K and 4E-BP1 in MM cell lines LP1, OPM2, and JJN3 in the presence of C96.
Cells were treated with or without C96 for 24 hrs before being applied to lysate preparation in a lysis buffer (50 mM Tris-HCI, pH 7.4, 1% NP-40, 0.5% Na-deoxycholate, and 0.1% SDS, 150 mM NaCl, 2 mM EDTA, 2 mM Na3VO4, and 5 mM NaF). […] All immunoblotting signals were further analyzed with Quality One Quality One software (Bio-Rad, Berkeley, CA, USA).

With `O=C1NC(=O)C(=CC=Cc2cccs2)C(=O)N1` [C96, 5-(3-(2-thienyl)-2-propen-1-ylidene)-2,4,6(1H,3H,5H)-pyrimidinetrione] the “phosphorylation levels of mTOR, p70S6K and 4E-BP1” value was “downregulated”.
